Series [1] relates to EOL-1 cells which express an MLL-PTD. The series can be described thus: In vitro anti-proliferative assay, EOL-1. Type of series: cell-based. The following applies: Homo sapiens, EOL1, 336 h; EOL-1, MLL-PTD; up to 14 days. The method, then:
(§1) In Vitro Anti-Proliferative Assay. The potency and selectivity of the anti-proliferative activity of the compounds of the present invention were assessed using a panel of MLL-rearranged and non-MLL-rearranged human leukemia cell lines. The MLL-rearranged panel included cell lines derived from ALL, AML and biphenotypic leukemias harboring MLL-AF4, MLL-AF9 or MLL-ENL fusions. These cell lines recruit DOT1L. […] Exponentially growing cells were plated, in triplicate, in 96-well plates at a density of 3×10^4 cells/well in a final volume of 150 μl. […] Anti-proliferative activity was determined by cell viability measurements every 3-4 days for up to 14 days.

Series [2] can be described thus: Plasma levels of Compound 2 in the xenograft study. The following applies: female, nude, mouse; for concentration at 21 day: subcutaneous, read-out: average plasma level from the last sampling on day 21. It is filed as in vivo, female nude mice. The protocol: (§2) Four groups of 20 (Groups 1, 3, 4 and 5), and one group of 8 (Group 2) female nude mice (average weight of 0.023 kg) bearing MV4-11 xenograft tumors of sizes ranging from 80-120 mm^3 were implanted subcutaneously with minipumps (Alzet Model 2001). Group 1 received vehicle only from the pump. Group 2 received vehicle only from the pump plus ip injections tid (8 hours apart) of vehicle. […] Pumps were designed to last for 7 days and were exchanged twice to give total infusion duration of 21 days exposure. […] Tumor size was measured every 4 days. After 21 days the study was terminated, and mean TGI calculated.

Another series relates to Jurkat. The series is described as follows: In vitro anti-proliferative assay, Jurkat. The following applies: non-MLL-rearranged, up to 14 days. Type of series: cell-based, human. The protocol:
as §1

The next series has as its system HL-60. The series is described as follows: In vitro anti-proliferative assay, HL-60. Type of series: cell-based, human. The following applies: HL-60, non-MLL-rearranged; up to 14 days. The protocol:
as §1

The subject of a further series is MV4-11 xenograft tumors. The series can be described thus: In vivo anti-proliferative assay, mouse xenograft model of MLL-rearranged leukemia. The following applies: 21 days; for TGI compared to controls: non-statistically significant. Also on record: species or system female nude mice. The protocol:
as §2, with “In Vivo Anti-Proliferative Assay. The in vivo anti-tumor activity of the compounds of the present invention were assessed in a mouse xenograft model of MLL-rearranged leukemia. Four” for “Four”

Each structure is given as a SMILES string. Read-outs that look alike come from different tables or passages of the source. A value given as a limit tells only on which side of the number the result lay.

`CC(C)N(C[C@H]1O[C@@H](n2cnc3c(N)ncnc32)[C@H](O)[C@@H]1O)[C@H]1C[C@@H](CCc2nc3cc(C(C)(C)C)ccc3[nH]2)C1` [Compound 2, (2R,3R,4S,5R)-2-(6-amino-9H-purin-9-yl)-5-((((1r,3S)-3-(2-(5-(tert-butyl)-1H-benzo[d]imidazol-2-yl)ethyl)cyclobutyl)(isopropyl)amino)methyl)tetrahydrofuran-3,4-diol]: the IC50 in series [1] amounted to 11 nM. Moreover, in series [2] (Group 3, ip 20 mg/kg tid plus 112 mg/kg/day minipump, read-out: Cmax after each of the tid ip injections), the Cmax is 4200 to 5000 ng/mL. For the same compound, the concentration at 21 day in series [2] (Group 4, 112 mg/kg/day minipump) was 99 ng/mL; in series [2] (Group 5, 56 mg/kg/day minipump), 52 ng/mL. Moreover, the anti-proliferative activity entry with Jurkat and with HL-60 was “no activity” each time. Further, the “TGI compared to controls” value with MV4-11 xenograft tumors (56 mg/kg/day minipump (Group 5)) is given as 43%; in the series with MV4-11 xenograft tumors (112 mg/kg/day minipump (Group 4)) it was 38%. The “TGI compared to the controls” value with MV4-11 xenograft tumors (Group 3: 112 mg/kg/day minipump plus ip 20 mg/kg tid, total 172 mg/kg/day, statistically significant) is reported as more than 70%.

The term IC50 denotes the concentration that inhibits the measured activity by half. Low values mean inhibition by little substance, high ones a need for much substance. The Cmax is the peak of the concentration-time curve.

(Values after US8580762B2, “Substituted purine and 7-deazapurine compounds” (Epizyme, Inc., priority 2010, dated 2013).)
